Assay results from the supplement of paper PMC10307832.

What was measured:
Assay in all cases: relative viability (nuclei count vs DMSO), 5 days (fraction); higher = more cells survive
[1] = compound: CCn1c(-c2nonc2N)nc2cnc(Oc3cccc(NC(=O)c4ccc(OCCN5CCOCC5)cc4)c3)cc21 + Nc1nc2[nH]cc(CCc3ccc(C(=O)N[C@@H](CCC(=O)O)C(=O)O)cc3)c2c(=O)[nH]1 [Pemetrexed] (partner 0.2 µM)
Outline: (§1)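 Lung cancer cell lines were pin-tool dosed in 1536-well plates on the day after seeding, with either a lone drug or a fixed anchor-drug dose plus five library-drug doses (not always all listed) in √10 steps. Nuclei were counted on 4× images after 5 days. Relative viability is the ratio of treated-well to vehicle-well nuclei counts, with each value a median of duplicate plates.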

Mirin + Navitoclax = compound: N=C1NC(=O)/C(=C/c2ccc(O)cc2)S1 [Mirin] + CC1(C)CCC(c2ccc(Cl)cc2)=C(CN2CCN(c3ccc(C(=O)NS(=O)(=O)c4ccc(N[C@H](CCN5CCOCC5)CSc5ccccc5)c(S(=O)(=O)C(F)(F)F)c4)cc3)CC2)C1 [Navitoclax] (partner 0.5 µM)
Outline: as §1

[2] = compound: CCC1=CN=CN=C1N2CCN(CC2)CC3=NC4=C(N3)C=C(C=C4)C(F)(F)F + CC(C)C[C@H](NC(=O)[C@H](Cc1ccccc1)NC(=O)c1cnccn1)B(O)O [Bortezomib] (partner 0.002 µM)
Outline: as §1

[3] = compound: CCn1c(-c2nonc2N)nc2cnc(Oc3cccc(NC(=O)c4ccc(OCCN5CCOCC5)cc4)c3)cc21 + CS(=O)(=O)CCNCc1ccc(-c2ccc3ncnc(Nc4ccc(OCc5cccc(F)c5)c(Cl)c4)c3c2)o1 [Lapatinib] (partner 2 µM)
Outline: as §1

Q: UMC-11 was tested. Which relative viability ([1]; first compound 0.04 µM) did it give?
A: 0.813

Q: And the relative viability ([1]; first compound 0.1265 µM)?
A: 0.596

Q: What about the relative viability ([1]; first compound 0.4 µM) of the same cell line?
A: 0.613

Q: And the relative viability ([1]; first compound 1.265 µM)?
A: 0.283

Q: And the relative viability ([1]; first compound 4 µM)?
A: 0.231

Q: What about the relative viability (Mirin + Navitoclax; first compound 0.25 µM) of the same cell line?
A: 0.324

Q: What about the relative viability (Mirin + Navitoclax; first compound 0.7906 µM) of the same cell line?
A: 0.312

Q: What about the relative viability (Mirin + Navitoclax; first compound 2.5 µM) of the same cell line?
A: 0.283

Q: What about the relative viability (Mirin + Navitoclax; first compound 7.906 µM) of the same cell line?
A: 0.276

Q: And the relative viability (Mirin + Navitoclax; first compound 25 µM)?
A: 0.209

Q: And the relative viability ([2]; first compound 0.04 µM)?
A: 0.703

Q: And the relative viability ([2]; first compound 0.1265 µM)?
A: 0.672

Q: And the relative viability ([2]; first compound 0.4 µM)?
A: 0.554

Q: And the relative viability ([2]; first compound 1.265 µM)?
A: 0.701

Q: And the relative viability ([2]; first compound 4 µM)?
A: 0.707

Q: And the relative viability ([3]; first compound 0.04 µM)?
A: 0.959

Q: And the relative viability ([3]; first compound 0.1265 µM)?
A: 0.833

Q: What about the relative viability ([3]; first compound 0.4 µM) of the same cell line?
A: 0.509

Q: And the relative viability ([3]; first compound 1.265 µM)?
A: 0.223

Q: And the relative viability ([3]; first compound 4 µM)?
A: 0.258
